Patent US9938261B2, “Heterocyclic compounds and methods of use thereof” (AMBIT BIOSCIENCES CORPORATION, priority 2011, dated 2018)
pIC50: −log10 of the molar value.

Biological target: CSF1R (Homo sapiens, UniProt P07333)
Assay: HEK293 CSF1R phosphorylation MSD assay
Format: cell-based
Design: expressed in transfected cells; host or cells: HEK293
Conditions: 2 h compound, human M-CSF 50 ng/mL for 5 min; read-out: HEK293 pCSF1R M-CSF MSD:IC50
How it was run: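 Ligand-induced CSF1R autophosphorylation was measured by MSD sandwich assay: CSF1R-FKBP from lysates captured via FK506, anti-phosphotyrosine readout. Cells were exposed to compound for 2 h (9-point, half-log, 0.5% DMSO) before 5 min 50 ng/mL M-CSF. Reported IC50 is the mean of duplicate-plate IC50s relative to DMSO control.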

Chain of CSF1R (P07333 20-972): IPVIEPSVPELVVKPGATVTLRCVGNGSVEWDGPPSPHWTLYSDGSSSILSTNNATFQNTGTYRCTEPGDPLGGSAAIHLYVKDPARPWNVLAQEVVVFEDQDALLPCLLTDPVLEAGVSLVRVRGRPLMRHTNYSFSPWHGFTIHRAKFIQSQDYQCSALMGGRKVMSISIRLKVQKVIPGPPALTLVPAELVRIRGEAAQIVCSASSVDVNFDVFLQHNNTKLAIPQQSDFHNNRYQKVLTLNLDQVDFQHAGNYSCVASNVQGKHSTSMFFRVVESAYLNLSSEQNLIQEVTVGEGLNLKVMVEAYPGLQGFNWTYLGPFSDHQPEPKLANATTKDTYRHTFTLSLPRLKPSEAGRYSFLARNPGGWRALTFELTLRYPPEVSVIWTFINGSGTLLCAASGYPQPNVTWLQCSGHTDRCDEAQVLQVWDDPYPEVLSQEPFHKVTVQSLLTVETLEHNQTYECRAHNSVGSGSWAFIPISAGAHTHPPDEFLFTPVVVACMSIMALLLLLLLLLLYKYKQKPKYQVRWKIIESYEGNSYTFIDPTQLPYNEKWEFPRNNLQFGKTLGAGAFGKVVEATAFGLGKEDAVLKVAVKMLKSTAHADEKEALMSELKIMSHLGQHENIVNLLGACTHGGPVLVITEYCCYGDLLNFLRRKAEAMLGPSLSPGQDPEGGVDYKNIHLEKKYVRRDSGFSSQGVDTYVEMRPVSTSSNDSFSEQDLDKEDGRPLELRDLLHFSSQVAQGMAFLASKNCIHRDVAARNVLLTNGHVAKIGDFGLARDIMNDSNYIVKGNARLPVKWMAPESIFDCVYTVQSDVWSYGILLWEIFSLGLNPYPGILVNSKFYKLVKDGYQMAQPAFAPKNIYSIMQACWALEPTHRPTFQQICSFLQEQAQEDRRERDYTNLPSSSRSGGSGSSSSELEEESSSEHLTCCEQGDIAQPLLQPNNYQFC

pIC50	Compound
6.30 to 6.70	O[C@@H]1CCCC[C@H]1Nc1nc2ccc(Cc3cnc4ccccn34)cc2s1 [Example 38, (1R,2R)-2-((6-(imidazo[1,2-a]pyridin-3-ylmethyl)benzo[d]thiazol-2-yl)amino)cyclohexanol]
6.70 to 7.30	COc1cc2ncn(Cc3ccc4nc(N[C@@H]5CCCC[C@H]5O)sc4c3)c2cc1Br [Example 47, (1R,2R)-2-((6-((6-bromo-5-methoxy-1H-benzo[d]imidazol-1-yl)methyl)benzo[d]thiazol-2-yl)amino)cyclohexanol]
6.70 to 7.30	OC[C@@H]1CCCC[C@H]1Nc1nc2ccc(Cn3cnc4cccnc43)cc2s1 [Example 66, ((1R,2R)-2-((6-((3H-imidazo[4,5-b]pyridin-3-yl)methyl)benzo[d]thiazol-2-yl)amino)cyclohexyl)methanol]
≥ 7.30	CC(=O)c1cnc2c(c1)ncn2Cc1ccc2nc(N[C@@H]3CCCC[C@H]3O)sc2c1 [Example 73, 1-(3-((2-(((1R,2R)-2-hydroxycyclohexyl)amino)benzo[d]thiazol-6-yl)methyl)-3H-imidazo[4,5-b]pyridin-6-yl)ethanone]
≥ 7.30	O[C@@H]1Cc2ccccc2[C@H]1Nc1nc2ccc(Cn3cnc4ccc(Br)nc43)cc2s1 [Example 80, (1R,2R)-1-((6-((5-bromo-3H-imidazo[4,5-b]pyridin-3-yl)methyl)benzo[d]thiazol-2-yl)amino)-2,3-dihydro-1H-inden-2-ol]

Compound	pIC50
either (1R,2R)-1-((6-((4-(1-methyl-1H-pyrazol-4-yl)-1H-imidazol-1-yl)methyl)benzo[d]thiazol-2-yl)amino)-2,3-dihydro-1H-inden-2-ol or (1R,2R)-1-((6-((5-(1-methyl-1H-pyrazol-4-yl)-1H-imidazol-1-yl)methyl)benzo[d]thiazol-2-yl)amino)-2,3-dihydro-1H-inden-2-ol [Example 83]	6.70 to 7.30

Same assay, conditions: HEK293 cells, M-CSF stimulated CSF1R phosphorylation, MSD; read-out: HEK293 pCSF1R M-CSF MSD:IC50

pIC50	Compound
6.70 to 7.30	Fc1cnc2c(c1)ncn2Cc1ccc2nc(N[C@@H]3CCCC[C@@H]3Cl)sc2c1 [Example 219, N-((1R,2S)-2-chlorocyclohexyl)-6-((6-fluoro-3H-imidazo[4,5-b]pyridin-3-yl)methyl)benzo[d]thiazol-2-amine]
6.70 to 7.30	CC(=NO)c1ccn2c(Cc3ccc4nc(N[C@@H]5CCCC[C@H]5O)sc4c3)cnc2c1 [Example 202, 1-(3-((2-(((1R,2R)-2-hydroxycyclohexyl)amino)benzo[d]thiazol-6-yl)methyl)imidazo[1,2-a]pyridin-7-yl)ethanone oxime]
6.70 to 7.30	CC(=O)c1ccn2c(Cc3ccc4nc(N[C@@H]5CCCC[C@H]5O)sc4c3)cnc2c1 [Example 200, 1-(3-((2-(((1R,2R)-2-hydroxycyclohexyl)amino)benzo[d]thiazol-6-yl)methyl)imidazo[1,2-a]pyridin-7-yl)ethanone]
≥ 7.30	O[C@@H]1CCCC[C@H]1Nc1nc2ccc(Cc3cnc4cc(-n5ccnc5)ccn34)cc2s1 [Example 214, (1R,2R)-2-((6-((7-(1H-imidazol-1-yl)imidazo[1,2-a]pyridin-3-yl)methyl)benzo[d]thiazol-2-yl)amino)cyclohexanol]
6.70 to 7.30	CON=C(C)c1ccn2c(Cc3ccc4nc(N[C@@H]5CCCC[C@H]5O)sc4c3)cnc2c1 [Example 204, 1-(3-((2-(((1R,2R)-2-hydroxycyclohexyl)amino)benzo[d]thiazol-6-yl)methyl)imidazo[1,2-a]pyridin-7-yl)ethanone O-methyl oxime]
6.70 to 7.30	O[C@@H]1CCCC[C@H]1Nc1nc2ccc(Cn3cnc4cc(Br)cc(F)c43)cc2s1 [Example 203, (1R,2R)-2-((6-((5-bromo-7-fluoro-1H-benzo[d]imidazol-1-yl)methyl)benzo[d]thiazol-2-yl)amino)cyclohexanol]
6.70 to 7.30	O[C@@H]1CCCC[C@H]1Nc1nc2ccc(Cn3cnc4cc(C(F)(F)F)cnc43)cc2s1 [Example 212, (1R,2R)-2-((6-((6-(trifluoromethyl)-3H-imidazo[4,5-b]pyridin-3-yl)methyl)benzo[d]thiazol-2-yl)amino)cyclohexanol]
